Values joined by “and” are separate entries in the source; they are usually repeats but may differ in a detail not shown here. Identical values can stand only once.
Assays:
Format in all cases: in vivo
Annual Bluegrass = assay: Pre-emergent herbicidal activity (Table A); settings: pre-emergence, Anbg, 11.2 kg/ha, 10-14 days, read-out: herbicidal rating (% inhibition)
How it was run: (§1)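 Compound incorporated into the cover-soil layer over sown seed at a rate equivalent to 11.2 kg/ha (acetone or water carrier). Greenhouse growth with watering as needed; ratings reflect percent inhibition per species, recorded around day 11 (range 10–14).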

Indian Mustard = assay: Pre-emergent herbicidal activity (Table A); settings: Brassica juncea, pre-emergence, Inmu, 11.2 kg/ha, 10-14 days, read-out: herbicidal rating (% inhibition)
How it was run: as §1

Seedling Johnsongrass = assay: Pre-emergent herbicidal activity (Table A); settings: Sorghum halepense, pre-emergence, Sejg, 11.2 kg/ha, 10-14 days, read-out: herbicidal rating (% inhibition)
How it was run: as §1

Wild Buckwheat = assay: Pre-emergent herbicidal activity (Table A); settings: Fallopia convolvulus, pre-emergence, Wibw, 11.2 kg/ha, 10-14 days, read-out: herbicidal rating (% inhibition)
How it was run: as §1

Grso = assay: plant injury after spraying emerged plants (Table D); set-up: scale not given here
How it was run: (§2)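 Injury to emerged plants was assessed after spraying. Plants came from seeds or propagules sown into sterilized, sieved silt-loam topsoil under a 1.27 cm layer of 50% topsoil with peat moss, vermiculite and wetting agent, then kept on greenhouse capillary mats with subirrigation.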

Hese = assay: as above; set-up: scale not given here
How it was run: as §2

Mogl = assay: as above; set-up: scale not given here
How it was run: as §2

Vele = assay: as above; set-up: scale not given here
How it was run: as §2

Wibw = assay: as above; set-up: scale not given here
How it was run: as §2

Cotz = assay: as above; set-up: scale not given here
Excerpt: (§3) Topsoil (silt loam) is sieved through a screen having 1.27 cm openings. In some of the tests the soil was mixed with fertilizer (1225 g/cu. m of 12/5/9 containing isobutylidene diurea), while in other tests the fertilizer was omitted. This mixture is steam sterilized and then placed in aluminum pans 6.985 cm deep having ten holes in the bottom each 0.635 cm in diameter. The soil mixture is compacted to a depth of 1.27 cm. from the top of the pan. A predetermined number of seeds of each of several dicotyledonous and monocotyledonous annual plant species and/or vegetative propagules for the perennial plant species are placed on the soil and pressed into the soil surface. The seeds and/or vegetative propagules are covered with 1.27 cm of a mixture of 50% topsoil and 50% of a mixture of Canadian sphagnum peat moss, vermiculite and a wetting agent. The pans are then placed on a capillary mat on a greenhouse bench and subirrigated as needed. After the plants reach the desired stage (9 to 14 days, 1 to 3 true leaf stage), each pan (except the control pans) is removed to a spraying chamber and sprayed by means of an atomizer, operating at a spray pressure of 170.3 kPa ([…]) at the application rates noted in Table D. In the spray solution is an amount of an emulsifying agent mixture (35% butylamine salt of dodecylbenzenesulfonic acid and 65% tall oil condensed with ethylene oxide in the ratio of 11 mols of ethylene oxide/mol of tall oil) to give a spray solution or suspension. The spray solution or suspension contains a sufficient amount of the candidate chemical in order to give application rates of the active ingredient corresponding to those shown in Table D below while applying a total amount of solution or suspension equivalent to 1870 L/Ha (200 gallons/acre). The pans are returned to the greenhouse and watered as before and the injury to the plants as compared to the control pans is observed at approximately 10-14 days (usually 11 days).
(§4) In the following Table D the legends used to identify the plant species are the same as those used in the preceding Table B.

Jiwe = assay: as above; set-up: scale not given here
Excerpt: as §3, §4

Rape = assay: as above; set-up: scale not given here
Excerpt: as §3, §4

COC(=O)c1c(OC)nc(C(F)(F)F)c(C2SCCS2)c1CC(C)C [Compound 93, 3-pyridinecarboxylic acid, 5-(1,3-dithiolan-2-yl)-2-methoxy-4-(2-methylpropyl)-6-(trifluoromethyl)-, methyl ester]
75 to 100%: inhibition at 11200 g/ha (Annual Bluegrass) | inhibition at 11200 g/ha (Indian Mustard) | inhibition at 11200 g/ha (Seedling Johnsongrass) | inhibition at 11200 g/ha (Wild Buckwheat)
3: plant injury rating, Hese (Hese; 0.2803 kg/ha) | plant injury rating, Hese (Hese; 1.1210 kg/ha) | plant injury rating, Hese (Hese; 5.6050 kg/ha) | plant injury rating, Mogl (Mogl; 5.6050 kg/ha) | plant injury rating, Vele (Vele; 5.6050 kg/ha) | plant injury rating, Jiwe (Jiwe; 1.1210 kg/ha) | plant injury rating, Jiwe (Jiwe; 5.6050 kg/ha) | plant injury rating, Rape (Rape; 1.1210 kg/ha) | plant injury rating, Rape (Rape; 5.6050 kg/ha)
1: plant injury rating, Hese (Hese; 0.0701 kg/ha)
0: plant injury rating, Grso (Grso; 0.0701 kg/ha) | plant injury rating, Grso (Grso; 0.2803 kg/ha) | plant injury rating, Grso (Grso; 1.1210 kg/ha) | plant injury rating, Mogl (Mogl; 0.0701 kg/ha) | plant injury rating, Vele (Vele; 0.0701 kg/ha) | plant injury rating, Vele (Vele; 0.2803 kg/ha) | plant injury rating, Wibw (Wibw; 0.0701 kg/ha) | plant injury rating, Wibw (Wibw; 0.2803 kg/ha) | plant injury rating, Wibw (Wibw; 1.1210 kg/ha) | plant injury rating, Wibw (Wibw; 5.6050 kg/ha) | plant injury rating, Cotz (Cotz; 0.0701 kg/ha) | plant injury rating, Cotz (Cotz; 0.2803 kg/ha) | plant injury rating, Cotz (Cotz; 1.1210 kg/ha) | plant injury rating, Rape (Rape; 0.0701 kg/ha)
2: plant injury rating, Grso (Grso; 5.6050 kg/ha) | plant injury rating, Mogl (Mogl; 0.2803 kg/ha) | plant injury rating, Mogl (Mogl; 1.1210 kg/ha) | plant injury rating, Vele (Vele; 1.1210 kg/ha) | plant injury rating, Cotz (Cotz; 5.6050 kg/ha) | plant injury rating, Jiwe (Jiwe; 0.0701 kg/ha) | plant injury rating, Jiwe (Jiwe; 0.2803 kg/ha) | plant injury rating, Rape (Rape; 0.2803 kg/ha)

COC(=O)c1c(OC)nc(C(F)(F)F)c(C2=NCCCS2)c1CC(C)C [Compound 98, 3-pyridinecarboxylic acid, 5-(5,6-dihydro-4H-1,3-thiazin-2-yl)-2-methoxy-4-(2-methylpropyl)-6-(trifluoromethyl)-, methyl ester]
2: plant injury rating, Hese (Hese; 0.2803 kg/ha) | plant injury rating, Hese (Hese; 1.1210 kg/ha) | plant injury rating, Mogl (Mogl; 5.6050 kg/ha) | plant injury rating, Vele (Vele; 0.2803 kg/ha) | plant injury rating, Vele (Vele; 1.1210 kg/ha) | plant injury rating, Cotz (Cotz; 5.6050 kg/ha) | plant injury rating, Jiwe (Jiwe; 0.0701 kg/ha) | plant injury rating, Jiwe (Jiwe; 0.2803 kg/ha)
1: plant injury rating, Grso (Grso; 5.6050 kg/ha) | plant injury rating, Hese (Hese; 0.0701 kg/ha) | plant injury rating, Mogl (Mogl; 1.1210 kg/ha) | plant injury rating, Vele (Vele; 0.0701 kg/ha) | plant injury rating, Wibw (Wibw; 1.1210 kg/ha) | plant injury rating, Cotz (Cotz; 1.1210 kg/ha) | plant injury rating, Rape (Rape; 1.1210 kg/ha)
75 to 100%: inhibition at 11200 g/ha (Annual Bluegrass) | inhibition at 11200 g/ha (Indian Mustard) | inhibition at 11200 g/ha (Seedling Johnsongrass) | inhibition at 11200 g/ha (Wild Buckwheat)
0: plant injury rating, Grso (Grso; 0.0701 kg/ha) | plant injury rating, Grso (Grso; 0.2803 kg/ha) | plant injury rating, Grso (Grso; 1.1210 kg/ha) | plant injury rating, Mogl (Mogl; 0.0701 kg/ha) | plant injury rating, Mogl (Mogl; 0.2803 kg/ha) | plant injury rating, Wibw (Wibw; 0.0701 kg/ha) | plant injury rating, Wibw (Wibw; 0.2803 kg/ha) | plant injury rating, Cotz (Cotz; 0.0701 kg/ha) | plant injury rating, Cotz (Cotz; 0.2803 kg/ha) | plant injury rating, Rape (Rape; 0.0701 kg/ha) | plant injury rating, Rape (Rape; 0.2803 kg/ha)
3: plant injury rating, Hese (Hese; 5.6050 kg/ha) | plant injury rating, Vele (Vele; 5.6050 kg/ha) | plant injury rating, Wibw (Wibw; 5.6050 kg/ha) | plant injury rating, Jiwe (Jiwe; 1.1210 kg/ha) | plant injury rating, Jiwe (Jiwe; 5.6050 kg/ha) | plant injury rating, Rape (Rape; 5.6050 kg/ha)

COC(=O)c1c(O)nc(C(F)(F)F)c(C(=O)OC)c1CC(C)C [Compound 1, 3,5-pyridinedicarboxylic acid, 2-hydroxy-4-(2-methylpropyl)-6-(trifluoromethyl)-, dimethyl ester]
0: plant injury rating, Grso (Grso; 0.0701 kg/ha) | plant injury rating, Grso (Grso; 0.2803 kg/ha) | plant injury rating, Grso (Grso; 1.1210 kg/ha) | plant injury rating, Wibw (Wibw; 0.0701 kg/ha) | plant injury rating, Cotz (Cotz; 0.0701 kg/ha) | plant injury rating, Jiwe (Jiwe; 0.0701 kg/ha)
4 and 3: plant injury rating, Jiwe (Jiwe; 5.3808 kg/ha)
1: plant injury rating, Hese (Hese; 0.0701 kg/ha) | plant injury rating, Mogl (Mogl; 1.1210 kg/ha) | plant injury rating, Vele (Vele; 0.0701 kg/ha) | plant injury rating, Wibw (Wibw; 0.2803 kg/ha) | plant injury rating, Rape (Rape; 0.0701 kg/ha)
2: plant injury rating, Hese (Hese; 0.2803 kg/ha) | plant injury rating, Hese (Hese; 1.1210 kg/ha) | plant injury rating, Vele (Vele; 0.2803 kg/ha) | plant injury rating, Vele (Vele; 1.1210 kg/ha) | plant injury rating, Wibw (Wibw; 1.1210 kg/ha) | plant injury rating, Jiwe (Jiwe; 1.1210 kg/ha)
2 and 1: plant injury rating, Jiwe (Jiwe; 0.2803 kg/ha)

COC(=O)c1c(OC)nc(C(F)(F)Cl)c(C(=O)OC)c1CC(C)C [Compound 30, 3,5-pyridinedicarboxylic acid, 2-(chlorodifluoromethyl)-6-methoxy-4-(2-methylpropyl)-, dimethyl ester]
0: plant injury rating, Grso (Grso; 0.5605 kg/ha) | plant injury rating, Grso (Grso; 1.1210 kg/ha)
1: plant injury rating, Grso (Grso; 2.8025 kg/ha) | plant injury rating, Grso (Grso; 5.6050 kg/ha) | plant injury rating, Grso (Grso; 8.4075 kg/ha) | plant injury rating, Grso (Grso; 11.2100 kg/ha) | plant injury rating, Hese (Hese; 0.5605 kg/ha) | plant injury rating, Hese (Hese; 1.1210 kg/ha) | plant injury rating, Hese (Hese; 2.8025 kg/ha) | plant injury rating, Hese (Hese; 5.6050 kg/ha) | plant injury rating, Hese (Hese; 11.2100 kg/ha) | plant injury rating, Mogl (Mogl; 0.5605 kg/ha) | plant injury rating, Mogl (Mogl; 1.1210 kg/ha) | plant injury rating, Mogl (Mogl; 2.8025 kg/ha) | plant injury rating, Mogl (Mogl; 5.6050 kg/ha) | plant injury rating, Mogl (Mogl; 8.4075 kg/ha) | plant injury rating, Vele (Vele; 0.5605 kg/ha) | plant injury rating, Vele (Vele; 1.1210 kg/ha) | plant injury rating, Vele (Vele; 2.8025 kg/ha) | plant injury rating, Vele (Vele; 5.6050 kg/ha) | plant injury rating, Vele (Vele; 11.2100 kg/ha) | plant injury rating, Wibw (Wibw; 0.5605 kg/ha) | plant injury rating, Wibw (Wibw; 1.1210 kg/ha) | plant injury rating, Wibw (Wibw; 2.8025 kg/ha) | plant injury rating, Wibw (Wibw; 5.6050 kg/ha) | plant injury rating, Wibw (Wibw; 8.4075 kg/ha)
2: plant injury rating, Hese (Hese; 8.4075 kg/ha) | plant injury rating, Mogl (Mogl; 11.2100 kg/ha) | plant injury rating, Vele (Vele; 8.4075 kg/ha) | plant injury rating, Wibw (Wibw; 11.2100 kg/ha)

COC(=O)c1c(OC)nc(C(F)(F)F)c(C2=NCCS2)c1CC(C)C [Compound 50, 3-pyridinecarboxylic acid, 5-(4,5-dihydro-2-thiazolyl)-2-methoxy-4-(2-methylpropyl)-6-(trifluoromethyl)-, methyl ester]
0: plant injury rating, Grso (Grso; 0.0701 kg/ha) | plant injury rating, Grso (Grso; 0.2803 kg/ha) | plant injury rating, Grso (Grso; 1.1210 kg/ha)
1: plant injury rating, Mogl (Mogl; 0.0701 kg/ha) | plant injury rating, Wibw (Wibw; 0.0701 kg/ha) | plant injury rating, Cotz (Cotz; 0.0701 kg/ha)
3: plant injury rating, Hese (Hese; 5.3808 kg/ha) | plant injury rating, Mogl (Mogl; 5.3808 kg/ha) | plant injury rating, Vele (Vele; 5.3808 kg/ha) | plant injury rating, Wibw (Wibw; 0.2803 kg/ha) | plant injury rating, Wibw (Wibw; 5.3808 kg/ha) | plant injury rating, Cotz (Cotz; 5.3808 kg/ha) | plant injury rating, Jiwe (Jiwe; 5.3808 kg/ha) | plant injury rating, Rape (Rape; 1.1210 kg/ha) | plant injury rating, Rape (Rape; 5.3808 kg/ha)
2: plant injury rating, Hese (Hese; 0.0701 kg/ha) | plant injury rating, Mogl (Mogl; 0.2803 kg/ha) | plant injury rating, Mogl (Mogl; 1.1210 kg/ha) | plant injury rating, Vele (Vele; 0.0701 kg/ha) | plant injury rating, Cotz (Cotz; 0.2803 kg/ha) | plant injury rating, Jiwe (Jiwe; 0.0701 kg/ha) | plant injury rating, Jiwe (Jiwe; 0.2803 kg/ha)
2 and 3: plant injury rating, Jiwe (Jiwe; 1.1210 kg/ha)

COC(=O)c1c(OC)nc(C(F)(F)F)c(N=CSC)c1CC(C)C [Compound 77, 3-pyridinecarboxylic acid, 2-methoxy-4-(2-methylpropyl)-5-[[(methylthio)methylene]amino]-6-(trifluoromethyl)-, methyl ester]
1: plant injury rating, Grso (Grso; 2.8025 kg/ha) | plant injury rating, Grso (Grso; 11.2100 kg/ha) | plant injury rating, Mogl (Mogl; 1.1210 kg/ha)
2: plant injury rating, Mogl (Mogl; 2.8025 kg/ha) | plant injury rating, Mogl (Mogl; 5.6050 kg/ha)
3: plant injury rating, Mogl (Mogl; 11.2100 kg/ha)

Reference: US5391540A, “Substituted pyridine compounds” (Rohm and Haas Company, priority 1993, dated 1995)
